Measurements taken from the supplement of paper PMC4862054.

How the values were obtained:
Assay in all cases: normalised response (% of control), CellTiter-Glo; higher = more viable cells (100 = DMSO, 0 = benzethonium chloride kill control)
Conditions in all cases: incubation time: 72 h
HCC1599 = tested on: HCC1599
Procedure, shortened: (§1)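 Every value is a normalised signal taken at one concentration of a dilution series. Compound was placed in 384-well plates at 5 concentrations in 10-fold steps over a compound-specific 10,000-fold range, and 20 µl of breast cancer cell suspension was seeded onto it. After 72 h, CellTox Green fluorescence (485/520 nm) was measured first and CellTiter-Glo luminescence second, following 10 min at room temperature. Each plate was scaled to 0.1 % DMSO (100) and a positive kill control (0).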

MCF-10A = tested on: MCF-10A
Procedure, shortened: as §1

CAL-51 = tested on: CAL-51
Procedure, shortened: as §1

DU-4475 = tested on: DU-4475
Procedure, shortened: as §1

HDQ-P1 = tested on: HDQ-P1
Procedure, shortened: as §1

MDA-MB-453 = tested on: MDA-MB-453
Procedure, shortened: as §1

CAL-120 = tested on: CAL-120
Procedure, shortened: as §1

MFM-223 = tested on: MFM-223
Procedure, shortened: as §1

HCC1937 = tested on: HCC1937
Procedure, shortened: as §1

Hs578T = tested on: Hs578T
Procedure, shortened: as §1

HCC1143 = tested on: HCC1143
Procedure, shortened: as §1

MDA-MB-231 = tested on: MDA-MB-231
Procedure, shortened: as §1

BT-549 = tested on: BT-549
Procedure, shortened: as §1

MDA-MB-468 = tested on: MDA-MB-468
Procedure, shortened: as §1

MDA-MB-436 = tested on: MDA-MB-436
Procedure, shortened: as §1

BT-474 = tested on: BT-474
Procedure, shortened: as §1

CAL-148 = tested on: CAL-148
Procedure, shortened: as §1

CAL-85-1 = tested on: CAL-85-1
Procedure, shortened: as §1

SK-BR-3 = tested on: SK-BR-3
Procedure, shortened: as §1

Structure (SMILES) | normalised response (HCC1599) | normalised response (MCF-10A) | normalised response (CAL-51) | normalised response (DU-4475) | normalised response (HDQ-P1) | normalised response (MDA-MB-453) | normalised response (CAL-120) | normalised response (MFM-223) | normalised response (HCC1937) | normalised response (Hs578T) | normalised response (HCC1143) | normalised response (MDA-MB-231) | normalised response (BT-549) | normalised response (MDA-MB-468) | normalised response (MDA-MB-436) | normalised response (BT-474) | normalised response (CAL-148) | normalised response (CAL-85-1) | normalised response (SK-BR-3)
Cc1cc(Nc2nc(N[C@@H](C)c3ncc(F)cn3)ncc2Cl)[nH]n1 [AZD1480] (1 nM) | 102% | 97.1% | 113% | 102% | 96.6% | 103% | 98% | 95.1% | 96.4% | 99.7% | 95.7% | 99.7% | 92.5% | 98.1% | 101% | 102% | 89.7% | 98.4% | 118%
O=C(O)CNC(=O)c1c(O)c2ccccc2n(Cc2ccccc2)c1=O [IOX-2] (5 nM) | 103% | 106% | 99.5% | 97.3% | 100% | 104% | 93.9% | 92.5% | 95% | 95% | 94.8% | 94.5% | 95.9% | 93.6% | 95.4% | 99.3% | 94.5% | 95.9% | 95.3%
O=C(O)CNC(=O)c1c(O)c2ccccc2n(Cc2ccccc2)c1=O [IOX-2] (50 nM) | 94.1% | 103% | 88% | 95.1% | 95.7% | 86.3% | 98.1% | 104% | 93.6% | 102% | 94.5% | 99.5% | 93.9% | 92.9% | 96.9% | 96.9% | 98.7% | 97.1% | 
CCNC(=O)CCC/C=C\C[C@@H]1[C@@H](/C=C/[C@@H](O)CCc2ccccc2)[C@H](O)C[C@@H]1O [Bimatoprost] (5.5 nM) | 96.9% | 96.4% | 106% | 99.5% | 94.5% | 96.8% | 93.1% | 96.1% | 96% | 98.4% | 99.4% | 101% | 91.7% | 96.5% | 102% | 96.6% | 92.8% | 96.1% | 
Cc1nc(C(=O)NCC(=O)O)c(O)c2ccc(Oc3ccccc3)cc12 [FG-4592] (10 nM) | 104% | 111% | 90.5% | 101% | 103% | 109% | 100% | 107% | 105% | 103% | 105% | 101% | 99.1% | 97.3% | 95% | 104% | 117% | 101% | 109%
Cn1cc(C2=C(c3cn(C4CCN(Cc5ccccn5)CC4)c4ccccc34)C(=O)NC2=O)c2ccccc21 [Enzastaurin] (10 nM) | 96.3% | 106% | 92.2% | 103% | 99.4% | 107% | 92.7% | 104% | 95.5% | 100% | 103% | 104% | 92.4% | 96.5% | 107% | 99.6% | 96.2% | 107% | 104%
C=CCN(/C=C1/C(=O)O[C@H](COC)[C@@]2(C)C1=C(O)C(=O)C1=C2[C@H](OC(C)=O)C[C@]2(C)C(=O)CC[C@@H]12)CC=C [Sonolisib] (1 nM) | 116% | 108% | 75.2% | 103% | 95.6% | 119% | 107% | 107% | 101% | 105% | 102% | 109% | 103% | 104% | 102% | 107% | 110% | 103% | 109%
Nc1ccn([C@@H]2O[C@H](CO)[C@@H](O)C2(F)F)c(=O)n1 [Gemcitabine] (1 nM) | 109% | 109% | 66% | 94% | 99.3% | 101% | 95.9% | 101% | 95.7% | 98.1% | 100% | 97.4% | 95% | 95.7% | 95.5% | 100% | 95.6% | 101% | 
CC1(COc2ccc3c(c2)ncn3-c2ccc3cccc(N4CCC(N)CC4)c3n2)COC1 [Crenolanib] (1 nM) | 105% | 116% | 123% | 108% | 102% | 90.9% | 98.5% | 99.5% | 103% | 103% | 98.5% | 98.7% | 110% | 102% | 97.9% | 102% | 102% | 96.6% | 106%
COc1ccc(S(=O)(=O)Nc2cccnc2Nc2ccc(O)cc2)cc1 [ABT-751] (10 nM) | 124% | 101% | 117% | 102% | 98.5% | 105% | 101% | 96.7% | 97.5% | 93.8% | 106% | 100% | 95.8% | 98.2% | 108% | 101% | 93.6% | 97.5% | 
CO[C@@]12[C@H](COC(N)=O)C3=C(C(=O)C(C)=C(N)C3=O)N1C[C@@H]1N[C@@H]12 [Mitomycin C] (10 nM) | 82.3% | 96.3% | 105% | 98.9% | 96.7% | 89% | 96.9% | 97.2% | 101% | 98.7% | 96.3% | 97% | 98.3% | 92.8% | 91% | 92.7% | 86.7% | 96.5% | 94.4%
CCNC(=O)c1noc(-c2cc(C(C)C)c(O)cc2O)c1-c1ccc(CN2CCOCC2)cc1 [NVP-AUY922] (1 nM) | 108% | 106% | 106% | 105% | 104% | 113% | 106% | 104% | 102% | 101% | 104% | 103% | 97.2% | 107% | 104% | 114% | 104% | 105% | 106%
CN(C)C(=N)NC(=N)N [Metformin] (100 nM) | 97.6% | 77.5% | 117% | 93% | 99.4% | 76.8% | 108% | 87.2% | 99.6% | 94% | 101% | 102% | 99% | 88% | 95.4% | 91.7% | 93.7% | 95.7% | 
O=[N+]([O-])c1ccc2c(c1)S(=O)(=O)C=C2 [Stattic] (50 nM) | 110% | 102% | 107% | 99.9% | 100% | 97.1% | 98.9% | 102% | 102% | 103% | 106% | 101% | 94.6% | 96.9% | 96.4% | 98.6% | 103% | 96.5% | 
C/C(=C\c1csc(C)n1)[C@@H]1C[C@@H]2O[C@]2(C)CCC[C@H](C)[C@H](O)[C@@H](C)C(=O)C(C)(C)[C@@H](O)CC(=O)N1 [Ixabepilone] (1 nM) | 85.5% | 103% | 129% | 102% | 98.5% | 107% | 100% | 106% | 97.6% | 105% | 98.1% | 101% | 95.5% | 104% | 99.3% | 106% | 102% | 99.8% | 
CC(C)(C)c1nc(-c2cccc(NS(=O)(=O)c3c(F)cccc3F)c2F)c(-c2ccnc(N)n2)s1 [Dabrafenib] (2.5 nM) | 99.8% | 112% | 109% | 104% | 105% | 111% | 98.5% | 101% | 98.4% | 103% | 105% | 102% | 99.1% | 105% | 101% | 101% | 112% | 99% | 
CC(=O)[C@]1(O)Cc2c(O)c3c(c(O)c2[C@@H](O[C@H]2C[C@H](N)[C@H](O)[C@H](C)O2)C1)C(=O)c1ccccc1C3=O [Idarubicin] (1 nM) | 91.1% | 105% | 91.5% | 101% | 99.7% | 101% | 104% | 109% | 99.9% | 99.5% | 107% | 109% | 90.5% | 97.7% | 113% | 111% | 116% | 103% | 
CC1(COc2ccc3c(c2)ncn3-c2ccc3cccc(N4CCC(N)CC4)c3n2)COC1 [Crenolanib] (10 nM) | 96.2% | 106% | 90.6% | 103% | 103% | 94.6% | 97.8% | 108% | 104% | 98.7% | 105% | 106% | 95.6% | 102% | 94.8% | 105% | 110% | 99.2% | 
O=C(CCCCCCC(=O)Nc1ccccc1)NO [Vorinostat] (10 nM) | 102% | 102% | 117% | 105% | 94.6% | 90.3% | 87.9% | 101% | 101% | 98.1% | 98.4% | 98.2% | 106% | 106% | 105% | 97.6% | 98.6% | 105% | 
CCn1c(C(=O)N(C2CC2)C2CC2)cc2c3c(ncn3C)c(Nc3cc(C)n(C)n3)nc21 (10 nM) | 82.5% | 99.8% | 85.3% | 96.9% | 95.6% | 93.3% | 97.3% | 102% | 99.5% | 105% | 104% | 100% | 95.2% | 106% | 103% | 93.5% | 107% | 101% | 
CC[C@H](CO)Nc1nc(NCc2ccccc2)c2ncn(C(C)C)c2n1 [Seliciclib] (10 nM) | 103% | 107% | 113% | 103% | 94.5% | 104% | 91.9% | 101% | 104% | 105% | 98.7% | 104% | 99.9% | 98.9% | 110% | 102% | 110% | 108% | 
